# Data as given in patent US12622909B2, “Allosteric EGFR inhibitors and methods of use thereof” (Dana-Farber Cancer Institute, Inc., priority 2019, dated 2026).
# Read-outs that look alike come from different tables or passages of the source.
# How the values were obtained:
# [1] = target: EGFR L858R/T790M (Homo sapiens, UniProt P00533, L858R/T790M); experiment: HTRF-based EGFR biochemical assay (L858R/T790M); settings: 100 μM ATP, enzyme 0.02 nM
# Experimental: (§1) EGFR biochemical activity measurements were carried out using the homogeneous time-resolved fluorescence (HTRF) assay (Cisbio). Inhibitors and DMSO normalizations were first dispensed to empty black low-volume 384-well plates (Corning) with D300 digital liquid dispenser (HP). All reactions were carried out at room temperature and solutions were added to plates with a Multidrop Combi Reagent Dispenser (ThermoFisher). The reaction mixture (10 μL final volume) contained 1 μM tyrosine kinase peptide-biotin substrate and mutant EGFR in a reaction buffer (50 mM HEPES pH 7.0, 5 mM MgCl2, 1 mM MnCl2, 0.01% BSA, 2 mM TCEP, 0.1 mM NaVO4). […] Enzyme reaction solution (2× concentrations, 5 μL) was added to 384-well plates containing compounds and incubated for 30 mins. Enzyme reactions were initiated with the addition of 5 μL of ATP to a final concentration of 100 μM and reacted for 20 mins.
# [2] = target: EGFR L858R (Homo sapiens, UniProt P00533, L858R); experiment: HTRF-based EGFR biochemical assay (L858R); settings: 100 μM ATP, enzyme 0.1 nM
# Experimental: as §1, with “20 mins. Reactions were quenched with the addition of 10 μL of phospho-tyrosine antibody-Europium(III) cryptate (1-to-180 volume ratio) and Streptavidin-XL665 (46.7 nM) in EDTA-containing detection buffer, then incubated at room temperature for 1 hour, and read with a PHERAstar plate reader (excitation=337 nm, emission=620 nm and 665 nm).” for “20 mins.”
# [3] = target: EGFR L858R/T790M mutant Ba/F3 cells (Homo sapiens, UniProt P00533, T790M/L858R, cells depend on it); experiment: Ba/F3 cell proliferation (Cell Titer Glo); format: cell-based, murine; settings: 72 hours
# Description: All cell lines were maintained in RPMI 1640 (Cellgro; Mediatech Inc., Herndon, CA) supplemented with 10% FBS, 100 units/mL penicillin, 100 units/mL streptomycin. The EGFR I941R mutation was introduced via site directed mutagenesis using the Quick Change Site-Directed Mutagenesis kit (Stratagene; La Jolla, CA) according to the manufacturer's instructions. All constructs were confirmed by DNA sequencing. The constructs were shuttled into the retroviral vector JP1540 using the Cre-recombination system (Agilent Technologies, Santa Clara, CA). Ba/F3 cells were then infected with retrovirus per standard protocols, as described previously (Zhou, et al, Nature 2009). Stable clones were obtained by selection in puromycin (2 μg/ml).
# Growth and inhibition of growth was assessed by the Cell Titer Glo assay (Promega, Madison, WI) and was performed according to the manufacturer's instructions. The Cell Titer Glo assay is a luminescence-based method used to determine the number of viable cells based on quantitation of the ATP present, which is directly proportional to the amount of metabolically active cells present. […] All experimental points were set up in triplicates in 384-well plates and all experiments were repeated at least three times. […] The curves were fitted using a non-linear regression model with a sigmoidal dose response.
# [4] = in combination with 1 μg/ml cetuximab, read-out: Cell IC50 BaF3 L858R/T790M compound + cetuximab
# [5] = single agent, read-out: Cell IC50 EGFR BaF3 L858R/T790M
# Sequence of EGFR L858R/T790M (P00533 25-1210 T790M/L858R): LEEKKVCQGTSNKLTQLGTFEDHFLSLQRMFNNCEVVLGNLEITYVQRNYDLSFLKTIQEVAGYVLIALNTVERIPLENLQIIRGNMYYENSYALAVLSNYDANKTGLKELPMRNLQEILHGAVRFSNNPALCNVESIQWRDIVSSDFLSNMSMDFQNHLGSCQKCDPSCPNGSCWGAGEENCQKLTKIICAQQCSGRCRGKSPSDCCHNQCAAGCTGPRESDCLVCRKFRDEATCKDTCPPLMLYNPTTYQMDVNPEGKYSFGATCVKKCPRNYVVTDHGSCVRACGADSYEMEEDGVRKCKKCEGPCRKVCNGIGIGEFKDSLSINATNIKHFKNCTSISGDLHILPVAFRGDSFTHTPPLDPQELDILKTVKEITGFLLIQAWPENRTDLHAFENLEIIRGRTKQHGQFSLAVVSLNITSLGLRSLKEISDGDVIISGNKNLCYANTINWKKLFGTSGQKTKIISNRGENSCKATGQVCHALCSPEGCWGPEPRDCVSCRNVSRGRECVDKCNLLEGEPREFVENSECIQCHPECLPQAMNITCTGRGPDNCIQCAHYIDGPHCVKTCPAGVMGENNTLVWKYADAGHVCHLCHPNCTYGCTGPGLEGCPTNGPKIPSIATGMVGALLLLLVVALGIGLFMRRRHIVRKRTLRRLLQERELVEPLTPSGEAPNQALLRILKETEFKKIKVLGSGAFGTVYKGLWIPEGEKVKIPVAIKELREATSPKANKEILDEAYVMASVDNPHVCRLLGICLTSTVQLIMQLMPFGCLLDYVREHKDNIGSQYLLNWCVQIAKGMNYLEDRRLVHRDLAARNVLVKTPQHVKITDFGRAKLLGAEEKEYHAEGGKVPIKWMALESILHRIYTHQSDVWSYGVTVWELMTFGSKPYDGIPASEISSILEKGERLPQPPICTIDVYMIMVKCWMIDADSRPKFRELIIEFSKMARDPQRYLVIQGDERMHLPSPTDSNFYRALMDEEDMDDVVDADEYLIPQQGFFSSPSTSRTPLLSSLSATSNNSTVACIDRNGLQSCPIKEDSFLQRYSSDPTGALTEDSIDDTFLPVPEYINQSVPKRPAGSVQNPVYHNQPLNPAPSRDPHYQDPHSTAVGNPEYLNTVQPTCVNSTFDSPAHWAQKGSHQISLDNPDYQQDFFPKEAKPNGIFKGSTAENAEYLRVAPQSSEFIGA
# Sequence of EGFR L858R (P00533 25-1210 L858R): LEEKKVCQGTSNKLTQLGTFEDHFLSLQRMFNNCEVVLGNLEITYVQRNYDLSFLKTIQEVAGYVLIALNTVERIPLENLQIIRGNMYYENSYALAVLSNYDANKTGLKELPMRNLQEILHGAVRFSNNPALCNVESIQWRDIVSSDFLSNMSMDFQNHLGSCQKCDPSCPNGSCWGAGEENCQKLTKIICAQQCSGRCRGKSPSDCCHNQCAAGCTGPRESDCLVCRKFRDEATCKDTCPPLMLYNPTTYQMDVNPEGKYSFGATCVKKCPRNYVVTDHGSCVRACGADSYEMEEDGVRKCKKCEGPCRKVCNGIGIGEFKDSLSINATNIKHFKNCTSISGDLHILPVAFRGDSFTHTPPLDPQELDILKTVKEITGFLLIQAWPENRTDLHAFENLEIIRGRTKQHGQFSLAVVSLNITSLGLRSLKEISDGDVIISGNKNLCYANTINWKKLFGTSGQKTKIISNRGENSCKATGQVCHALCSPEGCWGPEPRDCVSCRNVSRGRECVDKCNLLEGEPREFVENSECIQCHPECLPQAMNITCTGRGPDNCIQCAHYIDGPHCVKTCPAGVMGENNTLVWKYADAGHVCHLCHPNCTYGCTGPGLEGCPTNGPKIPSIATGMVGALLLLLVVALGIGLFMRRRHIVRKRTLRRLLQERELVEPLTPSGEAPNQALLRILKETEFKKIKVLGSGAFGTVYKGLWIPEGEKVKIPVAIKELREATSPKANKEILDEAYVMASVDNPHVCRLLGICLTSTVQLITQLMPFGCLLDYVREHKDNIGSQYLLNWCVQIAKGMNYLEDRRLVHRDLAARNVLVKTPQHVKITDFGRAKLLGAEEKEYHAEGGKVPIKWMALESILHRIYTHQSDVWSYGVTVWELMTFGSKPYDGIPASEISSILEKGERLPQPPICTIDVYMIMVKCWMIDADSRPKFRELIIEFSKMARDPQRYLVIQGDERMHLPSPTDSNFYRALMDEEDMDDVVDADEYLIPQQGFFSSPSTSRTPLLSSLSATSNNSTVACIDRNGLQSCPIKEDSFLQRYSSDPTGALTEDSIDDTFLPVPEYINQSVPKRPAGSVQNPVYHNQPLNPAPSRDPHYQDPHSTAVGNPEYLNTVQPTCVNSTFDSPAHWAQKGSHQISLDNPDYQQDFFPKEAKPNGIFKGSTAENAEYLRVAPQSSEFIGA
# Sequence of EGFR L858R/T790M mutant Ba/F3 cells (P00533 whole entry T790M/L858R): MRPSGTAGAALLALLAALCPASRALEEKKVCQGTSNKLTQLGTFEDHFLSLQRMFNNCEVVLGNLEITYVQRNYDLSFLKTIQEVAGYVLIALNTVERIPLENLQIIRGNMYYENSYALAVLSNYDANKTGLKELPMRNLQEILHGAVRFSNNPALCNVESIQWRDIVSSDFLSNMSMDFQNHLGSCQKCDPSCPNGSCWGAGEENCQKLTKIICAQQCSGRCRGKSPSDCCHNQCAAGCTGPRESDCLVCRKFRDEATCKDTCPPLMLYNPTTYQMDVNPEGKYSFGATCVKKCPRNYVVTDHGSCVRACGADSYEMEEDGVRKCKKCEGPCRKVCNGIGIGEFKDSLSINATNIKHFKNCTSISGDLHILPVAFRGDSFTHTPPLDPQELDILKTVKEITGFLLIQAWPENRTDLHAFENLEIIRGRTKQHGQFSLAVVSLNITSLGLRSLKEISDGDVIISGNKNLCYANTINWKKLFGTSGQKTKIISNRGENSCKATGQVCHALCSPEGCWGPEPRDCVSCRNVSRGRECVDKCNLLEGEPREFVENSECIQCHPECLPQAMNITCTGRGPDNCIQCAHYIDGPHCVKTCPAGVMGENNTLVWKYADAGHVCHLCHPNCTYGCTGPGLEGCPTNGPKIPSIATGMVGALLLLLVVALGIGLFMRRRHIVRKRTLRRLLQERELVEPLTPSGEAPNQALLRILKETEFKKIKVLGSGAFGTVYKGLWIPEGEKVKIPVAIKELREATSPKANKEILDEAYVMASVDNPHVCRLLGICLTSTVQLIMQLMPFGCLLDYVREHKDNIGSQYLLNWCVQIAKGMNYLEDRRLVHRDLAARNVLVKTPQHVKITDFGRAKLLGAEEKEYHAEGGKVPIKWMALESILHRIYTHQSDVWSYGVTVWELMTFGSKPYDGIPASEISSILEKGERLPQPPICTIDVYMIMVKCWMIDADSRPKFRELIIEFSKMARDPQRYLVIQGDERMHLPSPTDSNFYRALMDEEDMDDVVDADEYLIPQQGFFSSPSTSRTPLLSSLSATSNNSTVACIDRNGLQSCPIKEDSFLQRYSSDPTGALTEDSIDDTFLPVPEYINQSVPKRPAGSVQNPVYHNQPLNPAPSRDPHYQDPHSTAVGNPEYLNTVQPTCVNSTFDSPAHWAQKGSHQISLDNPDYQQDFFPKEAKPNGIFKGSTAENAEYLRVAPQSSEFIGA
IC50 [1] [µM],IC50 [2] [µM],"GI50 [3, 4] [µM]","GI50 [3, 5] [µM]",Compound
0.283,> 1,0.79,2.46,"Cc1nc2ccc(-c3ccc(C4CCN(C)CC4)cc3)cc2c(=O)n1C(C(=O)Nc1nccs1)c1ccccc1 (stereo not shown) [Compound 044, 2-(2-Methyl-6-(4-(1-methylpiperidin-4-yl)phenyl)-4-oxoquinazolin-3(4H)-yl)-2-phenyl-N-(thiazol-2-yl)acetamide]"
0.297,> 1,4.1,4.1,"Cc1nc2ccc(-c3ccc(N4CCN(C)CC4)cc3)cc2c(=O)n1C(C(=O)Nc1nccs1)c1ccccc1 (stereo not shown) [Compound 045, 2-(2-Methyl-6-(4-(4-methylpiperazin-1-yl)phenyl)-4-oxoquinazolin-3(4H)-yl)-2-phenyl-N-(thiazol-2-yl)-acetamide]"
0.042,0.091,0.41,2.48,"Cc1nc2cc(-c3ccc(C4CCN(C)CC4)cc3)ccc2c(=O)n1C(C(=O)Nc1nccs1)c1ccccc1 (stereo not shown) [Compound 054, 2-(2-Methyl-7-(4-(1-methylpiperidin-4-yl)phenyl)-4-oxoquinazolin-3(4H)-yl)-2-phenyl-N-(thiazol-2-yl)acetamide]"
0.079,0.264,1.5,3.94,"Cc1nc2cc(-c3ccc(N4CCN(C)CC4)cc3)ccc2c(=O)n1C(C(=O)Nc1nccs1)c1ccccc1 (stereo not shown) [Compound 055, 2-(2-Methyl-7-(4-(4-methylpiperazin-1-yl)phenyl)-4-oxoquinazolin-3(4H)-yl)-2-phenyl-N-(thiazol-2-yl)-acetamide]"
0.007,0.032,0.41,3.97,"CN1CCC(c2ccc(-c3cnc4c(=O)n(C(C(=O)Nc5nccs5)c5ccccc5)cnc4c3)cc2)CC1 (stereo not shown) [Compound 056, 2-(7-(4-(1-Methylpiperidin-4-yl)phenyl)-4-oxopyrido[3,2-d]pyrimidin-3(4H)-yl)-2-phenyl-N-(thiazol-2-yl)acetamide]"
0.007,0.05,0.7,4.73,"CN1CCN(c2ccc(-c3cnc4c(=O)n(C(C(=O)Nc5nccs5)c5ccccc5)cnc4c3)cc2)CC1 (stereo not shown) [Compound 057, 2-(7-(4-(4-Methylpiperazin-1-yl)-phenyl)-4-oxopyrido[3,2-d]-pyrimidin-3(4H)-yl)-2-phenyl-N-(thiazol-2-yl)acetamide]"
0.002,0.008,0.012,0.93,"CN1CCC(c2ccc(-c3cnc4ncn(C(C(=O)Nc5nccs5)c5ccccc5)c(=O)c4c3)cc2)CC1 (stereo not shown) [Compound 058, 2-(6-(4-(1-Methylpiperidin-4-yl)phenyl)-4-oxopyrido[2,3-d]-pyrimidin-3(4H)-yl)-2-phenyl-N-(thiazol-2-yl)acetamide]"
0.008,0.048,0.084,1.37,"CN1CCN(c2ccc(-c3cnc4ncn(C(C(=O)Nc5nccs5)c5ccccc5)c(=O)c4c3)cc2)CC1 (stereo not shown) [Compound 059, 2-(6-(4-(4-Methylpiperazin-1-yl)-phenyl)-4-oxopyrido[2,3-d]-pyrimidin-3(4H)-yl)-2-phenyl-N-(thiazol-2-yl)acetamide]"
0.22,> 1,> 10,> 10,"O=C(Nc1nccs1)C(c1cccnc1)n1cnc2ccc(Br)cc2c1=O (stereo not shown) [Compound 062, 2-(6-Bromo-4-oxoquinazolin-3(4H)-yl)-2-(pyridin-3-yl)-N-(thiazol-2-yl)-acetamide]"
0.005,0.078,0.49,6.15,"CN1CCN(c2ccc(-c3ccc4ncn(C(C(=O)Nc5nccs5)c5cccnc5)c(=O)c4c3)cc2)CC1 (stereo not shown) [Compound 064, 2-(6-(4-(4-Methylpiperazin-1-yl)-phenyl)-4-oxoquinazolin-3(4H)-yl)-2-(pyridin-3-yl)-N-(thiazol-2-yl)-acetamide]"
0.002,0.029,0.38,7.81,"CN1CCC(c2ccc(-c3ccc4ncn(C(C(=O)Nc5nccs5)c5cccnc5)c(=O)c4c3)cc2)CC1 (stereo not shown) [Compound 065, 2-(6-(4-(1-Methylpiperidin-4-yl)-phenyl)-4-oxoquinazolin-3(4H)-yl)-2-(pyridin-3-yl)-N-(thiazol-2-yl)-acetamide]"
0.0002,0.002,0.02,1.88,"CN1CCC(c2ccc(-c3ccc4ncn(C(C(=O)Nc5nccs5)c5ccccc5F)c(=O)c4c3)cc2)CC1 (stereo not shown) [Compound 066, 2-(2-Fluorophenyl)-2-(6-(4-(1-methylpiperidin-4-yl)phenyl)-4-oxo-quinazolin-3(4H)-yl)-N-(thiazol-2-yl)-acetamide]"
0.001,0.013,0.041,3.96,"CN1CCN(c2ccc(-c3ccc4ncn(C(C(=O)Nc5nccs5)c5ccccc5F)c(=O)c4c3)cc2)CC1 (stereo not shown) [Compound 067, 2-(2-fluorophenyl)-2-(6-(4-(4-methylpiperazin-1-yl)phenyl)-4-oxo-quinazolin-3(4H)-yl)-N-(thiazol-2-yl)-acetamide]"
0.0007,0.005,0.018,1.56,"CN1CCC(c2ccc(-c3ccc4ncn(C(C(=O)Nc5nccs5)c5ccccn5)c(=O)c4c3F)cc2)CC1 (stereo not shown) [Compound 068, 2-(5-Fluoro-6-(4-(1-methylpiperidin-4-yl)phenyl)-4-oxoquinazolin-3(4H)-yl)-2-(pyridin-2-yl)-N-(thiazol-2-yl)-acetamide]"
0.0005,0.007,0.028,2.81,"CN1CCC(c2ccc(-c3ccc4ncn(C(C(=O)Nc5nccs5)c5cccc(F)c5)c(=O)c4n3)cc2)CC1 (stereo not shown) [Compound 069, 2-(3-Fluorophenyl)-2-(6-(4-(1-methylpiperidin-4-yl)phenyl)-4-oxo-pyrido[3,2-d]pyrimidin-3(4H)-yl)-N-(thiazol-2-yl)acetamide]"
0.0002,0.001,0.005,0.55,"CN1CCC(c2ccc(-c3ccc4ncn(C(C(=O)Nc5nccs5)c5cccc(F)c5)c(=O)c4c3F)cc2)CC1 (stereo not shown) [Compound 070, 2-(5-Fluoro-6-(4-(1-methylpiperidin-4-yl)phenyl)-4-oxoquinazolin-3-(4H)-yl)-2-(3-fluorophenyl)-N-(thiazol-2-yl)acetamide]"

Compound,IC50 [1] [µM],IC50 [2] [µM],"GI50 [3, 4] [µM]","GI50 [3, 5] [µM]"
"CN1CCC(c2ccc(-c3ccc4cnn(C(C(=O)Nc5nccs5)c5ccccc5)c(=O)c4c3)cc2)CC1 (stereo not shown) [Compound 042, 2-(7-(4-(1-Methylpiperidin-4-yl)-phenyl)-1-oxophtharazin-2(1H)-yl)-2-phenyl-N-(thiazol-2-yl)acetamide]",0.004,0.035,0.25,1.46
"CN1CCN(c2ccc(-c3ccc4cnn(C(C(=O)Nc5nccs5)c5ccccc5)c(=O)c4c3)cc2)CC1 (stereo not shown) [Compound 043, 2-(7-(4-(4-Methylpiperazin-1-yl)-phenyl)-1-oxophthalazin-2(1H)-yl)-2-phenyl-N-(thiazol-2-yl)acetamide]",0.01,0.09,0.38,2.16
"CN1CCC(c2ccc(-c3cc(F)c4ncn(C(C(=O)Nc5nccs5)c5ccccc5)c(=O)c4c3)cc2)CC1 (stereo not shown) [Compound 060, 2-(8-Fluoro-6-(4-(1-methylpiperidin-4-yl)phenyl)-4-oxoquinazolin-3-(4H)-yl)-2-phenyl-N-(thiazol-2-yl)-acetamide]",0.0006,0.004,0.009,0.71
